We go through one substance from patent US20170173069A1, “METHODS OF NUCLEOTIDE AND GENE DELIVERY USING MEMBRANE TRANSPORT MECHANISMS” (The Charlotte Mecklenburg Hospital Authority d/b/a …, priority 2015, published 2017).

This data set relates to dystrophin exon 23. Description: Dystrophin expression (immunostaining of muscle sections) in mdx dystrophic mice after antisense oligonucleotide PMOE23. The format is in vivo, mouse. The procedure:
The mdx dystrophic mouse contains a nonsense point mutation in the dystrophin exon 23. PMOE23 (5′[…]-3′) (SEQ ID NO:1) oligo binds to the exon-intron boundary of the dystrophin exon 23, resulting in the skip of the exon 23 and restoration of the reading frame and the expression of the dystrophin protein. The mdx mice are treated with antisense oligonuleotide PMOE23 (5′[…]-3′) (SEQ ID NO:1) via intravenous injection and the muscles are examined 2 weeks later. Saline treated, mouse was treated with saline without PMO as control. PMO only, mouse was treated with single dose 1 mg PMO only. PMO+Repa, mouse was treated with single dose 1 mg PMO and Repaglinide. 100 microgram Repaglinide was gavaged before the injection of PMO. Quad, quadriceps. Blue are DAPI stained nuclei; red staining representing membrane localized dystrophin expression.
A comparison of levels of dystrophin expression after treatment with morpholino antisense oligonucleotide PMOE23 and Eicosapentaenoic acid (EPA)-linked PMOE23 in 4-6 weeks old mdx dystrophic mice. […] PMOE23 (5′[…]-3′) (SEQ ID NO:1) oligo binds to the exon-intron boundary of the dystrophin exon 23, resulting in the skip of the exon 23 and restoration of the reading frame and the expression of the dystrophin protein. […] 6 μm sections were cut from freshly frozen muscles and stained with rabbit anti-dystrophin antibody P7 and detected with goat-anti-rabbit Ig-Alexa 594. […] Images were taken by Olympus BX52 fluorescence microscope.
A comparison of levels of dystrophin expression after treatment with morpholino antisense oligonucleotide PMOE23 and PMOE23 in combination with the use of insulin in 4-6 weeks old mdx dystrophic mice. […] PMOE23 (5′[…]-3′) (SEQ ID NO:1) oligo binds to the exon-intron boundary of the dystrophin exon 23, resulting in the skip of the exon 23 and restoration of the reading frame and the expression of the dystrophin protein. […] 6 μm sections were cut from freshly frozen muscles and stained with rabbit anti-dystrophin antibody P7 and detected with goat-anti-rabbit Ig-Alexa 594. […] Images were taken by Olympus BX52 fluorescence microscope.

For the substance “PMO only: morpholino antisense oligonucleotide PMOE23, 5′GGCCAAACCTCGGCTTACCTGAAAT-3′ (SEQ ID NO:1), skips dystrophin exon 23 (all phosphorodiamidate morpholino (PMO))”, the “number of dystrophin positive fibers / membrane localized dystrophin expression in muscle” value by setting is: (Example 1, FIG. 1: mdx mice, single dose 1 mg PMO intravenous, 100 microgram Repaglinide gavaged before PMO, muscles examined 2 weeks later) “only a few muscle fibers expressing weak dystrophin”; (Example 2, FIG. 2: 4-6 weeks old mdx mice, single intravenous dose 1 mg PMOE23 or 0.7 mg EPA-linked PMOE23, muscles examined 2 weeks later, antibody P7) “only a few muscle fibers expressing weak dystrophin”; (Example 3, FIG. 3: 4-6 weeks old mdx mice, single intravenous dose 1 mg PMOE23, 0.5 unit Insulin subcutaneously immediately after PMO, muscles examined 2 weeks later, antibody P7) “only a few muscle fibers expressing weak dystrophin”.
